According to patent US8633165B2, “Neuroprotective effects of 2DG in traumatic brain injury” (Wisconsin Alumni Research Foundation, priority 2010, dated 2014):
“Also recorded” adds a separate entry of the source.

Experiments:
[1] = test system: rats with TBI induced by CCI in fronto-parietal and temporo-parietal cortex; assay: Corpus callosum and fornix DTI (FA) after TBI induced by CCI; type: in vivo, rat; conditions: for ex vivo corpus callosum (CC) FA: CCI location by treatment interaction p=0.038, fronto-parietal CCI
Description: (§1) “Fast” rats and “slow” rats from the 9th-11th generations selected by these procedures were subjected to TBI induced by the method of controlled cortical impact (CCI) using published protocols (see Dixon et al., 1991, J. Neuro. Meth. 39: 253-262). During the induction of TBI by CCI, the rats were deeply anesthetized with isoflurane (3% for induction, 1.5-2.5% for maintenance) and were placed in a stereotaxic frame. After craniotomy with the dura intact, anesthesia was reduced to 1% isoflurane for a 5-min equilibration period and CCI was performed over temporo-parietal cortex (−1 to −6 mm from bregma, below lateral skull ridge) and fronto-parietal cortex (+5.3 to −0.3 mm from bregma, below lateral skull ridge), which are more and less likely, respectively, to damage the hippocampus and amygdala. Brain lesions were induced by a digitally-controlled contusion device using a pneumatically driven impactor with a sterilized rounded stainless steel tip (3-4 mm in diameter) which compresses the cortex with a specified velocity, depth, and dwell time varied to induce a range of injury severity (ranging from mild, with parameters of 4.0 m/s, 1.0 mm deformation, dwell time 50 mS, to severe, at 6.0 m/s, 2.5 mm deformation, dwell time 50 mS). Anesthesia was then administered at maintenance levels (1.5-2.5%), the craniotomy and wound were closed, and the rats were allowed to recover. The location, severity, and progression of induced cortical and subcortical damage was examined by serial in vivo magnetic resonance imaging (MRI) and diffusion tensor imaging (DTI) techniques at 1 week, 1 month, and 6 months after TBI.
(§2) The effects of 2DG on TBI induced by CCI in fronto-parietal and temporo-parietal cortex were evaluated in “fast” kindling-susceptible and “slow” kindling-resistant rats. Half of the rats from these strains received 2DG at 40 mg/kg IP 30 min prior to CCI, and then 250 mg/kg immediately after and twice daily for 2 weeks. These rats were compared to control groups with TBI induced by CCI that were treated only with an equivalent volume of saline. Both treatment groups were also compared to sham-injured rats that underwent all aspects of the experimental manipulations except for CCI.
(§3) The effects of 2DG treatment on the location, severity, and progression of induced cortical and subcortical damage were assessed in serial in vivo magnetic resonance imaging (MRI) and diffusion tensor imaging (DTI) studies at 1 week, 1 month, and 6 months after TBI as well as high-resolution ex vivo DTI of brains harvested from the same rats following the final in vivo imaging session. DTI is an advanced MRI modality that offers a unique view of the brain in its ability to report quantitative microstructural information at the whole-brain and in vivo scales. […]

[2] = Mattson, 1999; cited from earlier work
rats [3] = conditions: rat, in vivo, 250 mg/kg
Method: For example, dosage amount and interval of 2-DG administration can be adjusted individually to reduce incidence, frequency, duration or intensity of deleterious sequellae of TBI, particularly PTE, using doses of 40 mg/kg or less to higher as tolerated to reduce seizure frequency and minimize toxicity. […] A practitioner skilled in the art can adjust dosage in the range of 2-250 mg/kg and the timing of administration to produce prolonged neuroprotectant effects. Efficacious dosage amounts can be adjusted in children and adults, for establishing effective dosage levels.

ischemic rat = conditions: Combs et al., 1986; cited from earlier work
mice = conditions: Stafstrom et al., 2009; cited from earlier work
[4] = test system: rats with TBI induced by CCI in fronto-parietal and temporo-parietal cortex; assay: Hippocampal DTI measures (MD, FA laterality index) after TBI induced by CCI; type: in vivo, rat; conditions: for in vivo hippocampal FA laterality index (LRI): fast and slow kindling strains, strain by treatment interaction p=0.088, saline vs 2DG at 1 month p=0.08; for change in in vivo ipsilateral hippocampal MD between 1 week and 6 months: paired t-test: saline p=0.0026, 2DG p=0.289, treatment by time interaction p=0.064
Description: as §1, §2
The effects of 2DG treatment on the location, severity, and progression of induced cortical and subcortical damage were assessed in serial in vivo magnetic resonance imaging (MRI) and diffusion tensor imaging (DTI) studies at 1 week, 1 month, and 6 months after TBI as well as high-resolution ex vivo DTI of brains harvested from the same rats following the final in vivo imaging session. DTI is an advanced MRI modality that offers a unique view of the brain in its ability to report quantitative microstructural information at the whole-brain and in vivo scales. The most commonly reported DTI indices are fractional anisotropy (FA), which characterizes the “directionalness” of tissue structure (e.g. high in white matter and low in grey matter and CSF) and mean diffusion (MD), which characterizes water status (“free” or “restricted”) due to cellular barriers (e.g. high in CSF and low in tissue). Both indices are known to be sensitive to damage and other structural changes such as tissue/circuit reorganization. This makes DTI an attractive modality to investigate disorders with known or hypothesized structural abnormalities such as TBI.
MRI scanning was performed using a Varian 4.7 T scanner and a quadrature birdcage volume coil was used to transmit and receive the MRI signal. […]

[5] = test system: rats with TBI induced by CCI in fronto-parietal and temporo-parietal cortex; assay: Lateral ventricle volume by T2W MRI after TBI induced by controlled cortical impact (CCI); type: in vivo, rat; conditions: for proportional change in lateral ventricle volume from 1 week to 1 month following injury: in vivo T2W MRI, 2DG 40 mg/kg IP 30 min prior to CCI, then 250 mg/kg immediately after and twice daily for 2 weeks, change significantly greater for saline than 2DG (p=0.015)
Description: “Fast” rats and “slow” rats from the 9th-11th generations selected by these procedures were subjected to TBI induced by the method of controlled cortical impact (CCI) using published protocols (see Dixon et al., 1991, J. Neuro. Meth. 39: 253-262). During the induction of TBI by CCI, the rats were deeply anesthetized with isoflurane (3% for induction, 1.5-2.5% for maintenance) and were placed in a stereotaxic frame. After craniotomy with the dura intact, anesthesia was reduced to 1% isoflurane for a 5-min equilibration period and CCI was performed over temporo-parietal cortex (−1 to −6 mm from bregma, below lateral skull ridge) and fronto-parietal cortex (+5.3 to −0.3 mm from bregma, below lateral skull ridge), which are more and less likely, respectively, to damage the hippocampus and amygdala. Brain lesions were induced by a digitally-controlled contusion device using a pneumatically driven impactor with a sterilized rounded stainless steel tip (3-4 mm in diameter) which compresses the cortex with a specified velocity, depth, and dwell time varied to induce a range of injury severity (ranging from mild, with parameters of 4.0 m/s, 1.0 mm deformation, dwell time 50 mS, to severe, at 6.0 m/s, 2.5 mm deformation, dwell time 50 mS). […]
The effects of 2DG on TBI induced by CCI in fronto-parietal and temporo-parietal cortex were evaluated in “fast” kindling-susceptible and “slow” kindling-resistant rats. […]
as §3

hippocampal brain slices = conditions: evoked by 7.5 mM [K+]o, 4-amino-pyridine, bicuculline, DHPG; Stafstrom et al., 2009; cited from earlier work
rats [6] = conditions: perforant path and olfactory bulb stimulation in rats; Garriga-Canut et al., 2006; Stafstrom et al., 2009; cited from earlier work

O=CC[C@@H](O)[C@H](O)[C@H](O)CO [2DG, 2-deoxy-D-glucose]
ex vivo corpus callosum (CC) FA [1]: FA was highest for fronto-parietal, 2DG treated rats
ex vivo corpus callosum (CC) FA ([1]; listed as 2-DG): reduced in all groups except for 2-DG treated rats with fronto-parietal CCI
ex vivo fornix FA ([1]; fronto-parietal CCI vs temporo-parietal CCI, 2-DG vs saline): reduced in all groups except for 2-DG treated rats with fronto-parietal CCI
in vivo anterior corpus callosum (aCC) FA, change from one week to six months ([1]; paired t-test: 2DG p=0.0099, saline p=0.8396, treatment by time interaction p=0.073): increase in aCC FA by 6 months post-CCI that nearly reaches control values; also recorded: significant change from one week to six months
brain damage initiated by seizures induced by kainic acid [2]: reduced brain damage
tolerability (rats [3]): well tolerated
brain damage initiated by ischemia (ischemic rat): reduced brain damage
anticonvulsant activity against seizures evoked by 6 Hz and audiogenic stimulation (mice): acute in vivo anticonvulsant activity
ex vivo ipsilateral hippocampal MD ([4]; ANOVA main effect for treatment p=0.002, compared with saline and sham-injured controls): restored MD measurements to the range of normal values observed in controls
in vivo hippocampal FA laterality index (LRI) [4]: appeared to abolish the pattern of increased LRI over 1 week to 1 month in both strains
in vivo hippocampal FA laterality index (LRI) ([4]; listed as 2-DG): reduces FA LRI in both strains
change in in vivo ipsilateral hippocampal MD between 1 week and 6 months [4]: not for the 2DG treated groups
change in in vivo ipsilateral hippocampal MD between 1 week and 6 months ([4]; listed as 2-DG): no significant change
ex vivo lateral ventricle volumes ([5]; brains harvested after 6 months, ANOVA treatment main effect p=0.16, strain by treatment interaction p=0.06, greater volumes for saline, most evident in slow-kindled strain): protection from gross tissue loss
proportional change in lateral ventricle volume from 1 week to 1 month following injury [5]: reduced progressive volumetric changes
proportional change in lateral ventricle volume from 1 week to 1 month following injury ([5]; listed as 2-DG): p<0.05 for the saline but not the 2-DG treated group
epileptic discharges evoked in hippocampal brain slices (hippocampal brain slices): acute in vitro reduction of epileptic discharges
slowing of progression of kindled seizures (rats [6]): 2 fold
